Source: US20200405697A1, “Antitumor Agent” (Taiho Pharmaceutical Co., Ltd, priority 2017, published 2020)

Experiments:
[1] = target: T1, human RNR (histidine tagged human M1 and human M2 proteins) (Homo sapiens, UniProt P23921); experiment: Human RNR inhibition effect (dCDP formation from CDP); assay type: biochemical; details: 10 μM CDP, 37° C. for 30 minutes, read-out: RNR inhibitory activity IC50
T1 construct: made in house; host or cells: Escherichia coli
T1 sequence (P23921 1-792): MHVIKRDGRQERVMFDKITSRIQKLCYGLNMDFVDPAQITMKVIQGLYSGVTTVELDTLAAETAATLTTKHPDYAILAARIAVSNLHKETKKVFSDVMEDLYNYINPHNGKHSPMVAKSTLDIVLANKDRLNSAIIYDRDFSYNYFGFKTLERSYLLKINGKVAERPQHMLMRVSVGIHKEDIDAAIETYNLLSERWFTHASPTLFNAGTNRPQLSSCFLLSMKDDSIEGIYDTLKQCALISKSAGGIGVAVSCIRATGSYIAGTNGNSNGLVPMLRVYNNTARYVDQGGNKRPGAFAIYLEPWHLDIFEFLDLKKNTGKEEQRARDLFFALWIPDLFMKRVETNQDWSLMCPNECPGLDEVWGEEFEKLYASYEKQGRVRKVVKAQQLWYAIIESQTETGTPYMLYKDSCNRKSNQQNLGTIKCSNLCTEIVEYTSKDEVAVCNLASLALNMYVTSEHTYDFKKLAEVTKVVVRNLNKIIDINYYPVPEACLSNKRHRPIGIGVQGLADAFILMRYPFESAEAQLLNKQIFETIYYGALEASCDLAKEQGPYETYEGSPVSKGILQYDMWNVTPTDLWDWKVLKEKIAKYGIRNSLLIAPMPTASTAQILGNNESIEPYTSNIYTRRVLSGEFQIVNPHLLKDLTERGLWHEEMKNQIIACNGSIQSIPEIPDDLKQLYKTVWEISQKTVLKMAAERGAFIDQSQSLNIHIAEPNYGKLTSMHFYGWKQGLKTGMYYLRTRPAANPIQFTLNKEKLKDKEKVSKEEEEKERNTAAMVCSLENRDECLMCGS
Method in brief: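 His-tagged human M1 (isoform 1) and N-terminal 59-aa-truncated M2 (isoform 2), E. coli-expressed, Ni-purified, preincubated 20 min with compound (1% DMSO). Reaction with 10 μM CDP, 2 mM ATP, 0.24 mM NADPH, 6 mM DTT, 4 mM Mg acetate, 100 mM KCl, 50 mM HEPES pH 7.2, 30 min at 37° C. dCDP formed quantified by reverse-phase HPLC after heat stop.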

[2] = system: GB-1 cells; experiment: Cell proliferation inhibitory effect on human cancer cell lines: GB-1; assay type: cell-based; details: GB-1, Glioblastoma, DMEM + 10% FBS, 3000 cell/well
Method: (§1) Human derived breast cancer cell line HCC 1806 cells (American Type Culture Collection, ATCC) were daily passaged at a cell density not exceeding 80% in ATCC recommended Roswell Park Memorial Institute medium (RPMI-1640) containing 10% fetal bovine serum (FBS). In order to start the test of cell proliferation inhibitory activity, HCC 1806 cells were suspended in the above medium, after seeing at 180 μL in each well of a 96-well flat bottom plate so that the number of cells per well was 2,000, the cells were cultured at 37° C. for 1 day in an incubator containing 5% carbon dioxide gas.
(§2) On the next day, the Example compound was dissolved in DMSO, and 20 μL of a drug additive solution diluted serially with distilled water to 10 times of the final concentration was added to each well of the culture plate of the cells, and the cells were cultured at 37° C. for 72 hours in an incubator containing 5% carbon dioxide gas. After culturing for 72 hours, 20 μL of glutaraldehyde was added to each well and allowed to stand for 30 minutes, then the plate was washed 10 times with water and was dried. 100 μL of a stain solution (0.05% crystal violet in a 20% methanol solution) was added to each well and allowed to stand for 30 minutes, then the plate was washed 10 times with water and was dried. 100 μL of an extract solution (0.1 N NaH2PO4: 100% ethanol=1:1) was added to each well and mixed, and the mixture was measured at a wavelength of 540 nm using a plate reader (MTP-450 manufactured by Corona Electric Co., Ltd.).
(§3) The growth inhibition rate was calculated from the following formula, and the concentration (IC50 (μM)) of a compound inhibiting 50% was determined.
(§4) According to the method of Test Example 2, the cell proliferation inhibitory effect on various cancer cell lines as described in Table 24 was evaluated. […]

[3] = system: MV-4-11; experiment: Antitumor effect in human-derived blood cancer cell line (MV-4-11) subcutaneous transplantation model (in vivo); parameters: species or system nude mouse (BALB/cA Jcl-nu/nu); details: oral, 100 mg/kg/day once per day for 14 days; RTV vs control group, Student-t test, p<0.05
Method: A human-derived blood cancer cell line MV-4-11 was transplanted subcutaneously into a nude mouse (BALB/cA Jcl-nu/nu, CLEA Japan, Inc.), and at the time when the tumor volume of the nude mouse on which the engrafted tumor reached 100 to 300 mm^3, four mice were assigned to each group by random stratification so that the average of the tumor volumes of each group was uniform (day 0), and the Example compound was orally administered daily at 100 mg/kg/day once per day for 14 days. Example Compound dosing solutions were prepared using 0.5% HPMC.
An electric balance for animals was used in body weight measurement. Rate of change in body weight on day n (BWCn) from body weight on day n (BWn) was calculated according to the following equation.
Rate of change in body weight BWCn (%)=(BWn−BW0)/BW0×100
Tumor volume (TV) was calculated according to the following equation by sandwiching and measuring the major axis and the minor axis with a digital caliper.
Tumor volume (mm^3)=Major axis (mm)×Minor axis (mm)×Minor axis (mm)/2
In order to compare the chronological transition of proliferation of tumor for the administration of each compound, relative tumor volume (RTV) setting the tumor volume at the time of grouping as 1 as the tumor proliferation rate was calculated according to the following formula, and the transition of the average value of RTV of each individual are shown in FIGS. 1 to 4.
RTV=(tumor volume at the day of tumor volume measurement)/(tumor volume at the time of the grouping)

[4] = target: T2, RNR (Homo sapiens, UniProt P31350); details: Non-Patent Document 7; cited from earlier work
T2 sequence (P31350 1-389): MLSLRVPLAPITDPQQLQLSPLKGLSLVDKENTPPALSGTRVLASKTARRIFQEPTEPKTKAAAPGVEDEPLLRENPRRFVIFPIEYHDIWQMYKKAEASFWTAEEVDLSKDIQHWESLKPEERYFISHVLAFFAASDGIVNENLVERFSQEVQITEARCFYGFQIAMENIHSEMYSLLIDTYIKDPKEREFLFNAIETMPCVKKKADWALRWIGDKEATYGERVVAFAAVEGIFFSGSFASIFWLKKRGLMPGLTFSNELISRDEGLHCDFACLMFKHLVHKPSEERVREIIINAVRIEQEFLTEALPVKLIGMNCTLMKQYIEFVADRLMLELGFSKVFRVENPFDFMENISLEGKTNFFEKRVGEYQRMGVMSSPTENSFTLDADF

[5] = system: HCC 1806 cells; experiment: Cell proliferation inhibitory effect on human breast cancer cell line; assay type: cell-based; details: HCC1806, 72 h, crystal violet, read-out: Cell growth suppression IC50
Method: as §1, §2, §3
Growth inhibition rate (%){(C-B)−(T-B)}(C-B)×100
T: Absorbance of well to which Example compound was added
C: Absorbance of wells to which no Example compound was added
B: Absorbance of wells to which no cell was added

[6] = system: A2780 cells; experiment: Cell proliferation inhibitory effect on human cancer cell lines: A2780; assay type: cell-based; details: 72 h, A2780, Ovarian Cancer, RPMI-1640 + 10% FBS, 2000 cell/well
Method: as §1
(§5) On the next day, the Example compound was dissolved in DMSO, and 20 μL of a drug additive solution diluted serially with distilled water to 10 times of the final concentration was added to each well of the culture plate of the cells, and the cells were cultured at 37° C. for 72 hours in an incubator containing 5% carbon dioxide gas. […] 100 μL of an extract solution (0.1 N NaH2PO4: 100% ethanol=1:1) was added to each well and mixed, and the mixture was measured at a wavelength of 540 nm using a plate reader (MTP-450 manufactured by Corona Electric Co., Ltd.). […]
as §4

[7] = system: ACHN cells; experiment: Cell proliferation inhibitory effect on human cancer cell lines: ACHN; assay type: cell-based; details: 72 h, Kidney Cancer, EMEM + 10% FBS, 2000 cell/well
Method: as §1, §5, §4

[8] = system: NCI-H460 cells; experiment: Cell proliferation inhibitory effect on human cancer cell lines: NCI-H460; assay type: cell-based; details: 72 h, NCI-H460, Lung Cancer, ATCC recommended RPMI-1640 + 10% FBS, 1000 cell/well
Method: as §1, §5, §4

[9] = system: mouse leukemia models; details: combination with etoposide or cisplatin; Non-Patent Document 12; cited from earlier work
[10] = system: non-small cell lung cancer cell line; details: combination with cytarabine or gemcitabine; Non-Patent Document 11; cited from earlier work
[11] = Non-Patent Document 10; cited from earlier work

SMILES | IC50 [1] | antitumor effect (relative tumor volume, RTV) [3] | other results
Cc1c(Cl)ccc(F)c1[C@@H](C)[C@H](NS(=O)(=O)c1ccc(Cl)c2c1OCCC2(C)O)c1n[nH]c(=O)o1 (single isomer, unassigned) [Example 209A] | 100 nM | antitumor effect | 
NC(=O)NO [HU, hydroxyurea] |  |  | RNR inhibitory activity [4]: very weak
COc1c(S(=O)(=O)N[C@H](c2n[nH]c(=O)o2)[C@H](C)c2c(F)ccc(C)c2C)ccc(Cl)c1C(C)O (stereo partly drawn) [Example 204, 4-chloro-N-((1S,2R)-2-(6-fluoro-2,3-dimethylphenyl)-1-(5-oxo-4,5-dihydro-1,3,4-oxadiazol-2-yl)propyl)-3-(1-hydroxyethyl)-2-methoxybenzenesulfonamide] | 150 nM |  | IC50 [5]: 150 nM
Cc1ccc(F)c([C@@H](C)[C@H](NS(=O)(=O)c2ccc(Cl)cc2C(N)=O)c2n[nH]c(=O)o2)c1C [Example 5] | 140 nM | antitumor effect | IC50 [2]: 1570 nM
[2H]C([2H])([2H])C1(O)CCOc2c(S(=O)(=O)N[C@H](c3n[nH]c(=O)o3)[C@H](C)c3c(F)ccc(C)c3C)ccc(Cl)c21 (single isomer, unassigned) [Example 200A] | 30 nM | antitumor effect | IC50 [6]: 130 nM; IC50 [7]: 130 nM; IC50 [8]: 130 nM
NC(=S)NN=Cc1ncccc1N [Example 3-AP, 3-aminopyridine-2-carboxaldehyde thiosemicarbazone] |  |  | life extending effect in combination [9]: enhancement in life extending effect; cell proliferation inhibitory effect in combination [10]: enhancement in cell proliferation inhibitory effect; side effects in clinical cases [11]: hypoxia, dyspnea, methemoglobinemia

More lines, in order of falling IC50 [1], values ahead:

IC50 [1] | SMILES | antitumor effect (relative tumor volume, RTV) [3] | other results
250 nM | Cc1c(Cl)ccc(F)c1[C@@H](C)[C@H](NS(=O)(=O)c1ccc(Cl)cc1C(N)=O)c1n[nH]c(=O)o1 [Example 14, 5-chloro-2-(N-((1S,2R)-2-(3-chloro-6-fluoro-2-methylphenyl)-1-(5-oxo-4,5-dihydro-1,3,4-oxadiazol-2-yl)propyl)sulfamoyl)benzamide] | antitumor effect | 
180 nM | CCc1ccc(F)c([C@@H](C)[C@H](NS(=O)(=O)c2ccc(Cl)cc2C(N)=O)c2n[nH]c(=O)o2)c1C [Example 11, 5-chloro-2-(N-((1S,2R)-2-(3-ethyl-6-fluoro-2-methylphenyl)-1-(5-oxo-4,5-dihydro-1,3,4-oxadiazol-2-yl)propyl)sulfamoyl)benzamide] | antitumor effect | IC50 [2]: 5220 nM
140 nM | CC(=O)OC1(C)CCOc2c(S(=O)(=O)N[C@H](c3n[nH]c(=O)o3)[C@H](C)c3c(F)ccc(C)c3C)ccc(Cl)c21 (stereo partly drawn) [Example 95, 5-chloro-8-(N-((1S,2R)-2-(6-fluoro-2,3-dimethylphenyl)-1-(5-oxo-4,5-dihydro-1,3,4-oxadiazol-2-yl)propyl)sulfamoyl)-4-methylchroman-4-ylacetate] |  | IC50 [5]: 140 nM
80 nM | [2H]C([2H])([2H])C1(O)CCOc2c(S(=O)(=O)N[C@H](c3n[nH]c(=O)o3)[C@H](C)c3c(F)ccc(Cl)c3C)ccc(Cl)c21 (single isomer, unassigned) [Example 228A] |  | IC50 [5]: 140 nM
80 nM | Cc1c(Br)ccc(F)c1[C@@H](C)[C@H](NS(=O)(=O)c1ccc(Cl)c2c1OCCC2(C)O)c1n[nH]c(=O)o1 (single isomer, unassigned) [Example 222A] | antitumor effect | 
80 nM | Cc1ccc(F)c([C@@H](C)[C@H](NS(=O)(=O)c2ccc(Cl)c3c2OCCC3O)c2n[nH]c(=O)o2)c1C (single isomer, unassigned) [Example 235A] | antitumor effect | 
